This is an account of results in ChEMBL document CHEMBL4007440, “Development of the First Generation of Disulfide-Based Subtype-Selective and Potent Covalent Pyruvate Dehydrogenase Kinase 1 (PDK1) Inhibitors” (J Med Chem, 2017).

The target in data set [1] is T1, [Pyruvate dehydrogenase (acetyl-transferring)] kinase isozyme 1, mitochondrial (Homo sapiens, UniProt Q15118). Kind of data set: Inhibition of full length His6-tagged PDK1 (unknown origin) expressed in Escherichia coli up to 10 uM using full length His6-tagged PDHA1 as substrate after 30 mins by ELISA. (In general: In an ELISA, binding on a coated surface is turned into a signal by an enzyme label.)

For data set [2], the target named is T1, [Pyruvate dehydrogenase (acetyl-transferring)] kinase isozyme 1, mitochondrial. As to the kind of experiment: Inhibition of full length His6-tagged PDK1 (unknown origin) expressed in Escherichia coli using full length His6-tagged PDHA1 as substrate after 30 mins by ELISA.
Data set [3] deals with [Pyruvate dehydrogenase (acetyl-transferring)] kinase isozyme 2, mitochondrial (Homo sapiens, UniProt Q15119). Kind of data set: Inhibition of PDK2 (unknown origin) using full length His6-tagged PDHA1 as substrate after 30 mins by ELISA.
Data set [4] addresses T1, [Pyruvate dehydrogenase (acetyl-transferring)] kinase isozyme 1, mitochondrial. As to the kind of experiment: Inhibition of PDK1 in human A549 cells assessed as reduction in phosphorylation of PDHE1 at S293 residue after 24 hrs by chemiluminescence/femtochemiluminescence method. Format: cell-based.
Data set [5] shares this target. Kind of data set: Inhibition of PDK1 in human A549 cells assessed as reduction in phosphorylation of PDHE1 at S232 residue after 24 hrs by chemiluminescence/femtochemiluminescence method. Format: cell-based.
The target of data set [6] is [Pyruvate dehydrogenase (acetyl-transferring)] kinase isozyme 3, mitochondrial (Homo sapiens, UniProt Q15120). Kind of data set: Inhibition of PDK3 (unknown origin) using full length His6-tagged PDHA1 as substrate after 30 mins by ELISA.
Data set [7] addresses T1, [Pyruvate dehydrogenase (acetyl-transferring)] kinase isozyme 1, mitochondrial. Kind of data set: Inhibition of full length His6-tagged PDK1 (unknown origin) expressed in Escherichia coli using full length His6-tagged PDHA1 as substrate in presence of GSH after 30 mins by ELISA.
Data set [8] addresses T2, [Pyruvate dehydrogenase (acetyl-transferring)] kinase isozyme 4, mitochondrial (Homo sapiens, UniProt Q16654). Kind of data set: Inhibition of PDK4 (unknown origin) at 10 uM using full length His6-tagged PDHA1 as substrate after 30 mins by ELISA.
Target sequence in this assay (Q16654 whole entry, looked up): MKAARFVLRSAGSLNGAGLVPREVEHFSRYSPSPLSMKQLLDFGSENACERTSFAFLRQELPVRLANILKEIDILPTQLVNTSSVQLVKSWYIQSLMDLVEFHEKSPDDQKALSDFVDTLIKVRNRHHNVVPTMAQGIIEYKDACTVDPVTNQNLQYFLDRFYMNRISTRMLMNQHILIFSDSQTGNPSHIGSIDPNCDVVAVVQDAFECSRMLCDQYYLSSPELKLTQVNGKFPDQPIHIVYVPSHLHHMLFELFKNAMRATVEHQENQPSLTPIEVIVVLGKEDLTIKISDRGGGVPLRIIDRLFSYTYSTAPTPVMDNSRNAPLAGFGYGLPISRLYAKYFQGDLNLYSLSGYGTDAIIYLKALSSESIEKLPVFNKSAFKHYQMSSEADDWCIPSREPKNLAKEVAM
Data set [9] deals with T1, [Pyruvate dehydrogenase (acetyl-transferring)] kinase isozyme 1, mitochondrial. Kind of data set: Inhibition of PDK1 in human A549 cells assessed as reduction in extracellular acidification rate after 24 hrs by fluorescent biosensor based assay. The class given is cell-based.
The target is the same in data set [10]. Kind of data set: Inhibition of PDK1 in human A549 cells assessed as increase in reactive oxygen species after 24 hrs by dihydroethidium staining based FACS analysis. The class given is cell-based. For orientation: Flow cytometry measures light scatter and fluorescence of single cells or particles in a stream.
Data set [11] in a line: Antiproliferative activity against human Kelly cells after 72 hrs by CCK8 assay.
Data set [12] can be described thus: Antiproliferative activity against human GM00637 cells after 72 hrs by CCK8 assay. The class given is cell-based. As to conditions: GM00637, 72 h. For orientation: Tetrazolium dyes change colour on reduction, which living cells bring about.
The subject of another data set is L02. As to the kind of experiment: Antiproliferative activity against human LO2 cells after 72 hrs by CCK8 assay. Format: cell-based. The settings on record: L02, 72 h.
Data set [13] relates to A549. As to the kind of experiment: Antitumor activity against human A549 cells xenografted in BALB/c nude mouse assessed as tumor growth inhibition at 40 mg/kg, ip for 21 days measured on day 21 post dose relative to control. The settings on record: 504 h, read-out: TGI. Format: functional.
In data set [14] the test system is A549. As to the kind of experiment: Antitumor activity against human A549 cells xenografted in BALB/c nude mouse assessed as tumor growth inhibition at 80 mg/kg, ip for 21 days measured on day 21 post dose relative to control. The class given is functional. As to conditions: 504 h, read-out: TGI.
Data set [15] deals with A549. As to the kind of experiment: Antitumor activity against human A549 cells xenografted in BALB/c nude mouse assessed as reduction in tumor weight at 40 to 80 mg/kg, ip for 21 days measured on day 21 post dose. The class given is functional, organism-based.
Another data set concerns Mus musculus. Kind of data set: Toxicity in BALB/c nude mouse assessed as body weight loss at 40 to 80 mg/kg, ip for 21 days. Format: organism-based. The settings on record: in vivo, 504 h.
The test system of data set [16] is A549. Kind of data set: cells. As to conditions: Homo sapiens, A549, 72 h.
Description: Antiproliferative activity against human A549 cells after 72 hrs by CCK8 assay
In data set [17] the target is T1, [Pyruvate dehydrogenase (acetyl-transferring)] kinase isozyme 1, mitochondrial. Kind of data set: Inhibition of PDK1 in human A549 cells assessed as reduction in phosphorylation of PDHE1 at S293 residue at 10 uM after 24 hrs by chemiluminescence/femtochemiluminescence method. The class given is cell-based.
Data set [18] shares this target. Kind of data set: Inhibition of PDK1 in human A549 cells assessed as reduction in phosphorylation of PDHE1 at S232 residue at 10 uM after 24 hrs by chemiluminescence/femtochemiluminescence method. Format: cell-based.
Data set [19] shares this target. As to the kind of experiment: Inhibition of PDK1 in human A549 cells assessed as reduction in phosphorylation of PDHE1 at S293 residue at 1 uM after 24 hrs by chemiluminescence/femtochemiluminescence method. The class given is cell-based.
Data set [20] has the same target. Kind of data set: Inhibition of PDK1 in human A549 cells assessed as reduction in phosphorylation of PDHE1 at S232 residue at 1 uM after 24 hrs by chemiluminescence/femtochemiluminescence method. The class given is cell-based.
For data set [21], the target named is T2, [Pyruvate dehydrogenase (acetyl-transferring)] kinase isozyme 4, mitochondrial. Kind of data set: Inhibition of PDK4 (unknown origin) using full length His6-tagged PDHA1 as substrate after 30 mins by ELISA.
Target sequence in this assay (Q16654 whole entry): as the sequence (Q16654 whole entry, looked up) above

Each structure is given as a SMILES string. The source made the active and inactive calls. No cut-off for these calls is given here.

T1 sequence (Q15118 whole entry): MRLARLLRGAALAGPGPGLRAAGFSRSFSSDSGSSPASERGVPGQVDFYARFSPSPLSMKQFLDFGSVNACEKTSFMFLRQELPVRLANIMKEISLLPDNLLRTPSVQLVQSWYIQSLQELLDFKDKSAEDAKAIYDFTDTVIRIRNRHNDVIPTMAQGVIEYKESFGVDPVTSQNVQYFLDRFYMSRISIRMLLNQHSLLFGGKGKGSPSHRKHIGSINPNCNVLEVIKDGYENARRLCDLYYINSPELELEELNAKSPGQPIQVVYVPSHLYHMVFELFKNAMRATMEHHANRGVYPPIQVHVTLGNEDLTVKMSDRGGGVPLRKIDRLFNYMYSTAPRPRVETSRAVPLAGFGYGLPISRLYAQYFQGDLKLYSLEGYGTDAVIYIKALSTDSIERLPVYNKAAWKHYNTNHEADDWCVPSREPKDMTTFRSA
Sequence of [Pyruvate dehydrogenase (acetyl-transferring)] kinase isozyme 3, mitochondrial (Q15120 whole entry): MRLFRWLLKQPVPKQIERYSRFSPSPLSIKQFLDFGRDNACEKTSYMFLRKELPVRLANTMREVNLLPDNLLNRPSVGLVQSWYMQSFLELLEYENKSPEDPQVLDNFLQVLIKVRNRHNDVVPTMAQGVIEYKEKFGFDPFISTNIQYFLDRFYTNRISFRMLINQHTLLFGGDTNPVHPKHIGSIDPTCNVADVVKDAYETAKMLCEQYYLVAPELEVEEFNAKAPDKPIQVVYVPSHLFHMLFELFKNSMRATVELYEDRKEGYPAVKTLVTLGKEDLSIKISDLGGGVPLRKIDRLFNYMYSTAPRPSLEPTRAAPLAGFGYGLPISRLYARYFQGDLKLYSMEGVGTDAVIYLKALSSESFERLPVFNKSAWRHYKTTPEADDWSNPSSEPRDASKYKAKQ

With `Sc1nc2ccccc2s1`, the inhibition entry in data set [1] was “inactive”.

As to `S=C(SSC(=S)N1CCOCC1)N1CCOCC1`, the concentration for half-maximal inhibition (IC50) in data set [2] was 0.049 µM; in data set [11] it was 0.289 µM; in data set [12], over 10 µM; with L02 it was over 10 µM; in the data set on A549 [16] it was 0.48 µM. The inhibition constant Ki worked out at 0.462 µM in data set [2], 0.176 µM in data set [3] and 2.85 µM in data set [6]. Besides, the inhibition result in data set [4], in data set [5], in [9] and in [10] was “Dose-dependent effect” in each case. Besides, the inhibition entry in data set [7] and in data set [8] was “inactive” each time. Besides, in the data set on A549 [13], the inhibition in vivo at 40 mg/kg amounted to 27.7%. Besides, the inhibition in vivo at 80 mg/kg in the data set on A549 [14] was determined as 50.4%. Also, in the data set on A549 [15], the result was Active. In addition, the Activity entry in the data set on Mus musculus was “Non-Toxic”.

`CCOC(=O)C1CCc2nc(S)sc2C1` (centres undefined): in [1], the inhibition entry is “inactive”.

Take `S=C(SSC(=S)N1CCCOCC1)N1CCCOCC1`: the half-maximal inhibitory concentration (IC50) in data set [2] is 0.026 µM; in [11] it was 0.057 µM; in data set [12], over 10 µM; in the data set on L02 it was over 10 µM; in the data set on A549 [16] it was 0.225 µM. Moreover, the Ki worked out at 0.109 µM in [2], 1.28 µM in data set [3] and 7.76 µM in data set [6]. Besides, the inhibition entry in data set [17], in data set [18], in data set [19] and in data set [20] was “Active” each time. Also, the inhibition entry in data set [4], in [5], in [9] and in [10] was “Dose-dependent effect” in each case. Moreover, the inhibition entry in data set [7] and in data set [8] was “inactive” each time. Moreover, the inhibition in vivo at 40 mg/kg with A549 [13] was 26.2%. For the same molecule, in the data set with A549 [14], the inhibition in vivo at 80 mg/kg was 47.8%. Moreover, in the data set with A549 [15], the result was Active. The Activity result with Mus musculus was “Non-Toxic”.

For the molecule `COC[C@@H]1COCCN1C(=S)SSC(=S)N1CCOC[C@H]1COC`, the IC50 was 0.024 µM in data set [2]; 1.43 µM in [11]; over 10 µM in data set [12]; over 10 µM in the data set on L02; 0.957 µM in the data set on A549 [16]. In addition, the Ki worked out at 0.11 µM in [2], 0.702 µM in data set [3] and 2.99 µM in data set [6]. Besides, the inhibition result in [17], in data set [18], in data set [19] and in [20] was “Active” in each case. In addition, the inhibition entry in data set [4], in data set [5], in data set [9] and in [10] was “Dose-dependent effect” in each case. In addition, the inhibition entry in data set [7] and in data set [8] was “inactive” throughout. In the data set with A549 [13], the inhibition in vivo at 40 mg/kg was 11%. The inhibition in vivo at 80 mg/kg with A549 [14] was 20%.

`O=C(O)C(Cl)Cl` [DICHLOROACETIC ACID]: the IC50 in data set [3] was 504 µM; in data set [6], 5560 µM; in [21], 727 µM; in data set [11] it was 11100 µM; in data set [12], 13800 µM; with L02, over 15000 µM. Further, the inhibition entry in data set [7] is “Active”.

The IC50 is the concentration needed to halve the response being measured. Higher therefore signals weaker potency in that assay. A word on the Ki: it is the equilibrium dissociation constant of an inhibitor or competing ligand from its target. High values mean lower affinity, low ones higher affinity.
